For 23 compounds, Ki, Activity and IC50 results are on record in ChEMBL document CHEMBL6127103, “Benzoxaborinine, New Chemotype for Carbonic Anhydrase Inhibition: Ex Novo Synthesis, Crystallography, In Silico Studies, and Anti-Melanoma Cell Line Activity” (J Med Chem, 2024).

Calls of active or inactive are those of the source. The rule behind the calls is not given here.

The target of assay [1] is T1, Carbonic anhydrase 1 (Homo sapiens, UniProt P00915). Briefly: Inhibition of human carbonic anhydrase I assessed as inhibition constant incubated for 15 to 360 mins by stopped-flow CO2 hydration assay.
The target in assay [2] is T2, Carbonic anhydrase 2 (Homo sapiens, UniProt P00918). Description: Inhibition of human carbonic anhydrase II assessed as inhibition constant incubated for 15 to 360 mins by stopped-flow CO2 hydration assay.
The target in assay [3] is T3, Carbonic anhydrase 9 (Homo sapiens, UniProt Q16790). Briefly: Inhibition of human carbonic anhydrase IX catalytic domain assessed as inhibition constant incubated for 15 to 360 mins by stopped-flow CO2 hydration assay.
Assay [4] addresses T4, Carbonic anhydrase 12 (Homo sapiens, UniProt O43570). Briefly: Inhibition of human carbonic anhydrase XII catalytic domain assessed as inhibition constant incubated for 15 to 360 mins by stopped-flow CO2 hydration assay.
Assay [5] has as its target T1, Carbonic anhydrase 1. Briefly: Inhibition of human carbonic anhydrase I assessed as inhibition constant incubated for 15 mins by stopped-flow carbon dioxide hydration assay.
Assay [6] deals with T2, Carbonic anhydrase 2. Description: Inhibition of human carbonic anhydrase II assessed as inhibition constant incubated for 15 mins by stopped-flow carbon dioxide hydration assay.
For assay [7], the target named is T3, Carbonic anhydrase 9.
Description: Inhibition of human carbonic anhydrase IX assessed as inhibition constant incubated for 15 mins by stopped-flow carbon dioxide hydration assay
Assay [8] concerns the target T4, Carbonic anhydrase 12. Briefly: Inhibition of human carbonic anhydrase XII assessed as inhibition constant incubated for 15 mins by stopped-flow carbon dioxide hydration assay.
Assay [9] has as its system A-375. Description: Anti-melanoma activity against human A-375 cells assessed as inhibition of cell proliferation at 100 uM incubated for 72 hrs by MACSQUant analyzer. The assay is classed as functional, cell-based.
The test system of assay [10] is A2058. Briefly: Anti-melanoma activity against human A2058 cells assessed as inhibition of cell proliferation at 100 uM incubated for 72 hrs by MACSQUant analyzer. The assay is classed as functional, cell-based.
Assay [11] deals with SK-MEL-2. Description: Anti-melanoma activity against human SK-MEL-2 cells assessed as inhibition of cell proliferation at 100 uM incubated for 72 hrs by MACSQUant analyzer. The assay is classed as functional, cell-based.
The subject of assay [12] is A-375. Description: Anti-melanoma activity against human A-375 cells assessed as inhibition of cell proliferation incubated for 72 hrs by MACSQUant analyzer. It counts as functional, cell-based. The following applies: A-375, 72 h.
Assay [13] relates to A-375. Briefly: Anti-melanoma activity against human A-375 cells assessed as inhibition of cell proliferation at 200 uM incubated for 72 hrs by MACSQUant analyzer. The assay is classed as functional, cell-based.
Assay [14] has as its system A2058. Briefly: Anti-melanoma activity against human A2058 cells assessed as inhibition of cell proliferation at 200 uM incubated for 72 hrs by MACSQUant analyzer. The assay is classed as functional, cell-based.
In assay [15] the test system is SK-MEL-2. Briefly: Anti-melanoma activity against human SK-MEL-2 cells assessed as inhibition of cell proliferation at 200 uM incubated for 72 hrs by MACSQUant analyzer. The assay is classed as functional, cell-based.
Assay [16] relates to A-375. Briefly: Anti-melanoma activity against human A-375 cells assessed as inhibition of cell proliferation at 10 to 300 uM incubated for 72 hrs by MACSQUant analyzer. It counts as functional, cell-based. The following applies: dose 10-300 µM.
Assay [17] concerns A2058. Description: Anti-melanoma activity against human A2058 cells assessed as inhibition of cell proliferation at 10 to 300 uM incubated for 72 hrs by MACSQUant analyzer. The assay is classed as functional, cell-based. The following applies: dose 10-300 µM.
The subject of assay [18] is SK-MEL-2. Briefly: Anti-melanoma activity against human SK-MEL-2 cells assessed as inhibition of cell proliferation at 10 to 300 uM incubated for 72 hrs by MACSQUant analyzer. It counts as functional, cell-based. The following applies: dose 10-300 µM.

Usually Ki stands for a dissociation constant, usually derived from enzyme kinetics or from competition with a known ligand. For orientation: IC50 means the concentration that inhibits the measured activity by half.

T1 sequence (P00915 whole entry): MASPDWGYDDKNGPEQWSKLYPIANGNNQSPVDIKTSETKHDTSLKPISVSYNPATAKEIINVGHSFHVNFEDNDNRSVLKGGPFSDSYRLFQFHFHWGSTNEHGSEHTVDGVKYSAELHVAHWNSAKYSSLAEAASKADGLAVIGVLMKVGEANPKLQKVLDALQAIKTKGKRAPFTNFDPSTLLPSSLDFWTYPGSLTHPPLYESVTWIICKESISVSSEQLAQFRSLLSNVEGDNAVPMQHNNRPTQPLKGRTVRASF
T4 sequence (O43570 whole entry, the tested form may be a part): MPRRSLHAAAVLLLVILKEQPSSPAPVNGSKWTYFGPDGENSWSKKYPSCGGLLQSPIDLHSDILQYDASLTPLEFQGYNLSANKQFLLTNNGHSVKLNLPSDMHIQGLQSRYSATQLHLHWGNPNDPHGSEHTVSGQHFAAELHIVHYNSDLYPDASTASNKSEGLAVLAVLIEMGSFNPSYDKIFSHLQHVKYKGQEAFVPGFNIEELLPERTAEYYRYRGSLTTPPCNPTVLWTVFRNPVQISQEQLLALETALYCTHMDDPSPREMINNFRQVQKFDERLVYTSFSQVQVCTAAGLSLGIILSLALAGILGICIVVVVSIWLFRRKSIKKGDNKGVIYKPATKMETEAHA

As for `OB1OCc2ccc(NC(=S)Nc3ccccc3)cc21`, the inhibitory constant (Ki) came to 0.548 µM on Carbonic anhydrase 1 [1], 1.15 µM on Carbonic anhydrase 2 [2], 0.436 µM on Carbonic anhydrase 9 [3] and 0.076 µM on Carbonic anhydrase 12 [4].
With `OB1OCCc2ccccc21` [BENZOXABORIN], the Ki on Carbonic anhydrase 1 [5] worked out at 3.87 µM; at Carbonic anhydrase 2 [6], 1.95 µM; at Carbonic anhydrase 9 [7], 9.85 µM; on Carbonic anhydrase 12 [8], 0.754 µM.
Turning to `O=C(Nc1ccc(C(F)(F)F)cc1)Nc1ccc2c(c1)B(O)OC2`, the values for the Ki on Carbonic anhydrase 9 [3] and on Carbonic anhydrase 12 [4] were 0.845 µM and 0.093 µM, respectively.
For the compound `O=C(Nc1ccc(C(F)(F)F)cc1)Nc1ccc2c(c1)B(O)OCC2`, the inhibition constant Ki came out at 20.7 µM at Carbonic anhydrase 1 [5], 0.306 µM at Carbonic anhydrase 2 [6], 0.139 µM at Carbonic anhydrase 9 [7] and 0.354 µM at Carbonic anhydrase 12 [8].
`OB1OCCc2ccc(NC(=S)Nc3ccc(C(F)(F)F)cc3)cc21`: the Ki on Carbonic anhydrase 1 [5] turned out to be 16.8 µM; on Carbonic anhydrase 2 [6] it was 0.0449 µM; on Carbonic anhydrase 9 [7] it was 0.349 µM; at Carbonic anhydrase 12 [8], 0.082 µM.
Turning to `O=C(Nc1ccc(F)cc1)Nc1ccc2c(c1)B(O)OC2`, the Ki at Carbonic anhydrase 9 [3] turned out to be 0.843 µM; on Carbonic anhydrase 12 [4], 0.175 µM.
With `O=C(Nc1ccc(F)cc1)Nc1ccc2c(c1)B(O)OCC2`, the Ki at Carbonic anhydrase 1 [5] amounted to 3.49 µM; on Carbonic anhydrase 2 [6], 0.0859 µM; at Carbonic anhydrase 9 [7] it was 0.451 µM; at Carbonic anhydrase 12 [8], 0.278 µM. Moreover, the result in the assay on A-375 [9], in the assay on A2058 [10] and in the assay on SK-MEL-2 [11] was Active. For the same compound, in the assay with A-375 [12], the IC50 amounted to 132 µM.
As to `NS(=O)(=O)c1ccc(NC(=O)Nc2ccc(F)cc2)cc1` [SLC-0111], the outcome in the assay with A-375 [13], in the assay with A2058 [14] and with SK-MEL-2 [15] was Active. Moreover, the IC50 in the assay on A-375 [12] was 111 µM.
For `OB1OCCc2ccc(NC(=S)Nc3ccccc3)cc21`, the inhibition constant Ki at Carbonic anhydrase 1 [5] amounted to 0.798 µM; on Carbonic anhydrase 2 [6], 0.295 µM; on Carbonic anhydrase 9 [7], 0.312 µM; on Carbonic anhydrase 12 [8], 0.191 µM.
`O=[N+]([O-])c1ccc2c(c1)B(O)OC2`: the values for the Ki at Carbonic anhydrase 9 [3] and on Carbonic anhydrase 12 [4] were 0.094 µM and 0.092 µM, respectively.
As for `Nc1ccc2c(c1)B(O)OCC2`, the Ki at Carbonic anhydrase 1 [5] is more than 100 µM; at Carbonic anhydrase 2 [6], 2.92 µM; on Carbonic anhydrase 9 [7] it was 0.045 µM; at Carbonic anhydrase 12 [8], 2.31 µM.
Turning to `O=C(NCc1ccccc1)Nc1ccc2c(c1)B(O)OC2`, the inhibition constant (Ki) at Carbonic anhydrase 9 [3] stood at 0.925 µM; on Carbonic anhydrase 12 [4] it was 0.184 µM.
With `OB1OCc2ccc(NC(=S)NCc3ccccc3)cc21`, the values for the Ki on Carbonic anhydrase 1 [1], at Carbonic anhydrase 9 [3] and at Carbonic anhydrase 12 [4] were 0.38 µM, 0.61 µM and 0.042 µM, respectively.
Regarding `Nc1ccc2c(c1)B(O)OC2`, the Ki on Carbonic anhydrase 9 [3] stood at 0.813 µM; at Carbonic anhydrase 12 [4], 0.64 µM.
`O=[N+]([O-])c1ccc(NC(=S)Nc2ccc3c(c2)B(O)OCC3)cc1`: the inhibition constant Ki stood at 0.523 µM on Carbonic anhydrase 1 [5], 0.452 µM on Carbonic anhydrase 2 [6], 0.0632 µM at Carbonic anhydrase 9 [7] and 0.0464 µM at Carbonic anhydrase 12 [8].
On to `OB1OCCc2ccc(NC(=S)NCc3ccccc3)cc21`, for which the inhibitory constant (Ki) at Carbonic anhydrase 1 [5] was 0.614 µM; at Carbonic anhydrase 2 [6] it was 0.0417 µM; at Carbonic anhydrase 9 [7], 0.0528 µM; on Carbonic anhydrase 12 [8] it was 0.069 µM. Besides, the outcome in the assay on A-375 [16], with A2058 [17] and in the assay on SK-MEL-2 [18] was Active. Also, the IC50 in the assay on A-375 [12] was determined as 126 µM.
With `O=[N+]([O-])c1ccc2c(c1)B(O)OCC2`, the Ki amounted to 44.5 µM on Carbonic anhydrase 1 [5], 0.983 µM at Carbonic anhydrase 2 [6], 0.025 µM on Carbonic anhydrase 9 [7] and 0.92 µM at Carbonic anhydrase 12 [8].
Take `OB1OCCc2ccc(NC(=S)Nc3ccc(F)cc3)cc21`: the inhibition constant (Ki) was determined as 1.59 µM on Carbonic anhydrase 1 [5], 0.434 µM at Carbonic anhydrase 2 [6], 0.0885 µM at Carbonic anhydrase 9 [7] and 0.151 µM on Carbonic anhydrase 12 [8].
As to `O=C(Nc1ccccc1)Nc1ccc2c(c1)B(O)OC2`, the Ki came out at 1.06 µM at Carbonic anhydrase 9 [3] and 0.24 µM at Carbonic anhydrase 12 [4].
Regarding `O=C(Nc1ccccc1)Nc1ccc2c(c1)B(O)OCC2`, the inhibition constant Ki at Carbonic anhydrase 1 [5] is 19 µM; on Carbonic anhydrase 2 [6], 0.262 µM; at Carbonic anhydrase 9 [7], 0.268 µM; on Carbonic anhydrase 12 [8], 0.21 µM.
Consider `OB1OCc2ccc(NC(=S)Nc3ccc(F)cc3)cc21`, for which the inhibitory constant (Ki) on Carbonic anhydrase 9 [3] worked out at 0.336 µM; on Carbonic anhydrase 12 [4], 0.089 µM.
In the case of `O=C(NCc1ccccc1)Nc1ccc2c(c1)B(O)OCC2`, the Ki on Carbonic anhydrase 1 [5] was determined as 0.637 µM; on Carbonic anhydrase 2 [6] it was 0.112 µM; at Carbonic anhydrase 9 [7] it was 0.163 µM; on Carbonic anhydrase 12 [8] it was 0.0807 µM. Moreover, the outcome in the assay on A-375 [16], with A2058 [17] and with SK-MEL-2 [18] was Active. Moreover, the concentration for half-maximal inhibition (IC50) in the assay with A-375 [12] came to 31.6 µM.
With `OB1OCc2ccccc21` [BENZOXABOROLE], the Ki at Carbonic anhydrase 9 [3] and at Carbonic anhydrase 12 [4] was more than 50 µM each time.
